Test results published in patent US11254640B2, “N-substituted indoles and other heterocycles for treating brain disorders” (The Regents of the University of California, priority 2019, dated 2022).
Where two headings read alike, the source gives them in different places.

Tests used:
Assay type in all cases: cell-based
5HT2A sensor [1] = test: 5HT2A sensor assay, agonist mode (sLight1.3s HEK293T stable line); conditions: percent relative to 5-HT at 100 uM; for 5HT2A Agonist mean @ 100 nM (%): 100 nM compound; for 5HT2A Agonist mean @ 10 μM (%): 10 μM compound; for 5HT2A Agonist mean @ 100 μM (%): 100 μM compound
How it was run: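 Fluorescence change, dFF=(Fsat−Fapo)/Fapo, was taken from membrane images (460 nm excitation) before and after compound addition and scaled as % activation, with the DMSO mean as 0 and the 5HT mean as 100. The cells were sLight1.3s HEK293T in HBSS. Final compound levels were 100 μM, 10 μM and 100 nM in 0.1% DMSO, in triplicate.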

rat cortical neurons = test: Neurite outgrowth assay; conditions: Cortical neurone, 1 hour treatment at DIV 4, analysed DIV 7, fold vs DMSO control
How it was run: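 Embryonic day 18 rat cortical neurons, 20,000 cells/well in Neurobasal/B27, were exposed at DIV 4 to 10 μM compound for 1 hour, then washed out. At DIV 7, β-III-tubulin immunostaining and automated imaging gave neurite length, branch points, root and extremity counts, reported as fold-change versus DMSO; triplicates.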

5HT2A sensor [2] = test: 5HT2A sensor assay, antagonist mode (sLight1.3s HEK293T stable line); conditions: relative to 5-HT at 100 nM; for 5HT2A Antagonist mean @ 100 nM (%): 100 nM compound; for 5HT2A Antagonist mean @ 10 μM (%): 10 μM compound; for 5HT2A Antagonist mean @ 100 μM (%): 100 μM compound
How it was run: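 Inactivation score is computed from membrane dFF as (dFF(compound+5HT)−dFF(5HT))/dFF(5HT), with HBSS-only fluorescence as Fapo. Final concentrations: 5-HT 100 nM added first, then compound at 100 nM, 10 μM or 100 μM in 0.1% DMSO. Triplicates; FITC imaging, 5 fields per well.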

[3] = read-out: Neurite Average Length @ 10 μM
[4] = read-out: Neurite Branch Points: @ 10 μM

| SMILES | 5HT2A Agonist mean @ 100 nM (%) (5HT2A sensor [1]) | 5HT2A Agonist mean @ 10 μM (%) (5HT2A sensor [1]) | 5HT2A Agonist mean @ 100 μM (%) (5HT2A sensor [1]) | fold induction at 10 µM (rat cortical neurons; [3]) | fold induction at 10 µM (rat cortical neurons; [4]) | 5HT2A Antagonist mean @ 100 nM (%) (5HT2A sensor [2]) | 5HT2A Antagonist mean @ 10 μM (%) (5HT2A sensor [2]) | 5HT2A Antagonist mean @ 100 μM (%) (5HT2A sensor [2]) |
| --- | --- | --- | --- | --- | --- | --- | --- | --- |
| COc1cccc2c1ccn2CCN(C)C.O=C(O)/C=C/C(=O)O [Example 3, 2-(4-methoxy-1H-indol-1-yl)-N,N-dimethylethan-1-amine] | B (does not activate 5HT2A sensor assay in agonist mode) | B (does not activate 5HT2A sensor assay in agonist mode) | B (does not activate 5HT2A sensor assay in agonist mode) | < 1.5 | 1.5 to 3 | A (inhibits 5HT response by >100%) | A (inhibits 5HT response by >100%) | A (inhibits 5HT response by >100%) |
| C[C@H](Cn1ccc2cc(F)ccc21)N(C)C [Example 60, (R)-1-(5-fluoro-1H-indol-1-yl)-N,N-dimethylpropan-2-amine] | B (does not activate 5HT2A sensor assay in agonist mode) | B (does not activate 5HT2A sensor assay in agonist mode) | A (activates 5HT2A sensor assay in agonist mode) | 1.5 to 3 | 1.5 to 3 | C (inhibits 5HT response by <75%) | B (inhibits 5HT response by 75% to 100%) | B (inhibits 5HT response by 75% to 100%) |
| COc1ccc2c(ccn2C[C@@H](C)N(C)C)c1 [Example 59, (R)-1-(5-methoxy-1H-indol-1-yl)-N,N-dimethylpropan-2-amine] | B (does not activate 5HT2A sensor assay in agonist mode) | B (does not activate 5HT2A sensor assay in agonist mode) | B (does not activate 5HT2A sensor assay in agonist mode) | 1.5 to 3 | > 3 | B (inhibits 5HT response by 75% to 100%) | A (inhibits 5HT response by >100%) | A (inhibits 5HT response by >100%) |
| COc1ccc2c(ccn2CCN(C)C)c1.O=C(O)/C=C/C(=O)O [Example 4, 2-(5-methoxy-1H-indol-1-yl)-N,N-dimethylethan-1-amine] | B (does not activate 5HT2A sensor assay in agonist mode) | B (does not activate 5HT2A sensor assay in agonist mode) | A (activates 5HT2A sensor assay in agonist mode) | 1.5 to 3 | 1.5 to 3 | C (inhibits 5HT response by <75%) | B (inhibits 5HT response by 75% to 100%) | B (inhibits 5HT response by 75% to 100%) |
| COc1ccc2ccn(CCN(C)C)c2c1 [Example 5, 2-(6-methoxy-1H-indol-1-yl)-N,N-dimethylethan-1-amine] | B (does not activate 5HT2A sensor assay in agonist mode) | B (does not activate 5HT2A sensor assay in agonist mode) | A (activates 5HT2A sensor assay in agonist mode) | 1.5 to 3 | 1.5 to 3 | B (inhibits 5HT response by 75% to 100%) | B (inhibits 5HT response by 75% to 100%) | B (inhibits 5HT response by 75% to 100%) |
| COc1cccc2ccn(CCN(C)C)c12.O=C(O)/C=C/C(=O)O [Example 6, 2-(7-methoxy-1H-indol-1-yl)-N,N-dimethylethan-1-amine] | B (does not activate 5HT2A sensor assay in agonist mode) | B (does not activate 5HT2A sensor assay in agonist mode) | B (does not activate 5HT2A sensor assay in agonist mode) | 1.5 to 3 | 1.5 to 3 | A (inhibits 5HT response by >100%) | A (inhibits 5HT response by >100%) | A (inhibits 5HT response by >100%) |
